Laboratory results published in ChEMBL document CHEMBL5500375, “Design, synthesis, and evaluation of N1,N3-dialkyldioxonaphthoimidazoliums as antibacterial agents against methicillin-resistant Staphylococcus aureus” (Eur J Med Chem, 2024).
Active and inactive are the calls of the source. No cut-off for these calls is given here.

Assays:
Staphylococcus aureus [1] = test: Antibacterial activity against c5-resistant mutant of methicillin-resistant Staphylococcus aureus SA3 m6 assessed as fold increase in MIC measured after 12 passages to MIC during first passage; type: functional
Staphylococcus aureus [2] = test: In vivo antibacterial activity against methicillin-resistant Staphylococcus aureus SA3 infected in dorsal thorax of Drosophila melanogaster strain Oregon R assessed as median survival time of Drosophila at 0.04 to 0.2 mg/ml measured upto 72 hrs; type: functional; details: dose 0.04-0.2 mg/ml
Staphylococcus aureus [3] = test: Antibacterial activity against methicillin-resistant Staphylococcus aureus SA3 assessed as resistance by measuring antibacterial activity after 11 to 20 passages at 0.39 ug/ml by emergence of bacterial resistance assay; type: functional, organism-based; details: dose 0.39 µg/ml
Staphylococcus aureus [4] = test: Antibacterial agents against methicillin-resistant Staphylococcus aureus SA3 assessed as absence of growth at 0.19 ug/ml measured after overnight incubation under anaerobic condition in presence of N-acetylcysteine by micro-dilution method; type: functional, organism-based; details: dose 0.19 µg/ml
Staphylococcus aureus [5] = test: Antibacterial agents against c5-resistant mutant of methicillin-resistant Staphylococcus aureus SA3 m1 assessed as absence of growth at 0.19 ug/ml measured after overnight incubation under anaerobic condition in presence of N-acetylcysteine by micro-dilution method; type: functional, organism-based; details: dose 0.19 µg/ml
[6] = Metabolic stability in human liver microsomes assessed as intrinsic clearance at 2 uM preincubated for 5 mins followed by NADPH addition and measured for 35 mins by LC/MS analysis; type: ADME, Microsome; details: read-out: CLH
Staphylococcus aureus [7] = test: Antibacterial agents against methicillin-sensitive Staphylococcus aureus SA1 assessed as absence of growth measured after 18 hrs by micro-dilution method; type: functional
Escherichia coli [8] = test: Antibacterial agents against gram negative Escherichia coli MG1655 assessed as reduction in colony forming unit at 0.78 ug/ml measured upto 10 hrs by LB agar medium method; type: functional, organism-based; details: dose 0.78 µg/ml
Staphylococcus aureus [9] = test: Induction of ROS generation in methicillin-resistant Staphylococcus aureus SA3 using hydroxyphenyl fluorescein at 0.09 ug/ml under anaerobic condition; type: functional, organism-based; details: dose 0.09 µg/ml, TDE = time-dependent effect
Staphylococcus aureus [10] = test: Antibacterial activity against methicillin-resistant Staphylococcus aureus SA3 assessed as absence of growth measured after 16 passages by emergence of bacterial resistance assay; type: functional
Staphylococcus aureus [11] = test: Antibacterial agents against methicillin-sensitive Staphylococcus aureus SA1 assessed as absence of growth at 0.19 ug/ml measured after overnight incubation under anaerobic condition in presence of N-acetylcysteine by micro-dilution method; type: functional, organism-based; details: dose 0.19 µg/ml
Escherichia coli [12] = test: Antibacterial agents against gram negative Escherichia coli MG1655 assessed as reduction in colony forming unit at 0.78 ug/ml measured upto 10 hrs in presence of 0.2 ug/ml Polymyxin B by LB agar medium method; type: functional; details: dose 0.78 µg/ml
Staphylococcus aureus [13] = test: Antibacterial agents against c5-resistant mutant of methicillin-resistant Staphylococcus aureus SA3 m4 assessed as absence of growth at 0.19 ug/ml measured after overnight incubation under anaerobic condition in presence of N-acetylcysteine by micro-dilution method; type: functional, organism-based; details: dose 0.19 µg/ml
Staphylococcus aureus [14] = test: Anti-biofilim activity against methicillin-resistant Staphylococcus aureus USA300 assessed decrease in biofilm growth at 1 to 10 times of MIC concentration measured after 12 to 24 hrs incubation; type: functional, organism-based; details: time 12-24 hrs
Staphylococcus aureus [15] = test: Antibacterial activity against methicillin-resistant Staphylococcus aureus SA3 assessed as resistance by measuring antibacterial activity after 10 passages at 0.39 ug/ml by emergence of bacterial resistance assay; type: functional, organism-based; details: dose 0.39 µg/ml
Staphylococcus aureus [16] = test: Reduction in virulent activity of methicillin-resistant Staphylococcus aureus SA3 infected in dorsal thorax of Drosophila melanogaster strain Oregon R at 0.2 mg/ml measured upto 72 hrs; type: functional, organism-based
Staphylococcus aureus [17] = test: Anti-biofilim activity against methicillin-resistant Staphylococcus aureus SA3 assessed decrease in biofilm growth at 1 to 10 times of MIC concentration measured after 12 to 24 hrs incubation; type: functional, organism-based; details: time 12-24 hrs
Staphylococcus aureus [18] = test: Antibacterial agents against c5-resistant mutant of methicillin-resistant Staphylococcus aureus SA3 m3 assessed as absence of growth at 0.19 ug/ml measured after overnight incubation under anaerobic condition in presence of N-acetylcysteine by micro-dilution method; type: functional, organism-based; details: dose 0.19 µg/ml
Pseudomonas aeruginosa [19] = test: Antibacterial agents against gram negative Pseudomonas aeruginosa PA14 assessed as reduction in colony forming unit at 0.78 ug/ml measured upto 10 hrs by LB agar medium method; type: functional, organism-based; details: dose 0.78 µg/ml
Bacillus subtilis = test: Antibacterial agents against Bacillus subtilis PS380 assessed as absence of growth at 0.19 ug/ml measured after overnight incubation under anaerobic condition in presence of N-acetylcysteine by micro-dilution method; type: functional, organism-based; details: dose 0.19 µg/ml
[20] = Metabolic stability in human liver microsomes assessed as half life at 2 uM preincubated for 5 mins followed by NADPH addition and measured for 35 mins by LC/MS analysis; type: ADME, Microsome; details: preincubation 5 min
Staphylococcus aureus [21] = test: Induction of ROS generation in methicillin-resistant Staphylococcus aureus USA300 using hydroxyphenyl fluorescein at 0.09 ug/ml under anaerobic condition; type: functional, organism-based; details: dose 0.09 µg/ml, TDE = time-dependent effect
Staphylococcus aureus [22] = test: Antibacterial agents against c5-resistant mutant of methicillin-resistant Staphylococcus aureus SA3 m3 assessed as absence of growth measured after 18 hrs by micro-dilution method; type: functional
Staphylococcus aureus [23] = test: Antibacterial agents against methicillin-resistant Staphylococcus aureus USA300 assessed as absence of growth at 0.19 ug/ml measured after overnight incubation under anaerobic condition in presence of N-acetylcysteine by micro-dilution method; type: functional, organism-based; details: dose 0.19 µg/ml
[24] = Therapeutic index, ratio of IC50 for HEK293 cells to MIC for […] activity against methicillin-resistant Staphylococcus aureus SA3; type: toxicity; details: human, read-out: TI
Staphylococcus aureus [25] = test: Bactericidal activity against methicillin-resistant Staphylococcus aureus SA3 assessed as as reduction in colony forming unit at 0.78 ug/ml measured upto 10 hrs by time-kill assay; type: functional, organism-based; details: dose 0.78 µg/ml
Staphylococcus aureus [26] = test: Antibacterial agents against methicillin-sensitive Staphylococcus aureus Newman assessed as absence of growth at 0.19 ug/ml measured after overnight incubation under anaerobic condition in presence of N-acetylcysteine by micro-dilution method; type: functional, organism-based; details: dose 0.19 µg/ml
Staphylococcus aureus [27] = test: Bactericidal activity against methicillin-resistant Staphylococcus aureus SA3 assessed as as reduction in colony forming unit at 0.1 to 0.4 ug/ml measured after 2 to 4 hrs by time-kill assay; type: functional, organism-based; details: dose 0.1-0.4 µg/ml, time 2-4 hrs
Staphylococcus aureus [28] = test: Antibacterial agents against methicillin-resistant Staphylococcus aureus SA3 assessed as absence of growth measured after 18 hrs by micro-dilution method; type: functional
Pseudomonas aeruginosa [29] = test: Antibacterial agents against gram negative Pseudomonas aeruginosa PA14 assessed as reduction in colony forming unit at 0.78 ug/ml measured upto 10 hrs in presence of 0.1 ug/ml Polymyxin B by LB agar medium method; type: functional, organism-based; details: dose 0.78 µg/ml
Staphylococcus aureus [30] = test: Anti-biofilim activity against methicillin-sensitive Staphylococcus aureus SA1 assessed decrease in biofilm growth at 1 to 10 times of MIC concentration measured after 12 to 24 hrs incubation; type: functional, organism-based; details: time 12-24 hrs
Staphylococcus aureus [31] = test: Bactericidal activity against methicillin-resistant Staphylococcus aureus SA3 assessed as as reduction in colony forming unit at 0.78 ug/ml measured within 10 hrs by time-kill assay; type: functional; details: dose 0.78 µg/ml
Staphylococcus aureus [32] = test: Anti-biofilim activity against methicillin-sensitive Staphylococcus aureus Newman assessed decrease in biofilm growth at 1 to 10 times of MIC concentration measured after 12 to 24 hrs incubation; type: functional, organism-based; details: time 12-24 hrs
[33] = Cytotoxicity against human HEK293 cells assessed as cell survival measured after 72 hrs incubation by Cell Titer-Glo luminescent assay; type: toxicity, cell-based

With `CCCCCCCCn1c2c([n+](Cc3ccccc3)c1C)C(=O)c1ccccc1C2=O.[Br-]` the “fold change (FC)” value (Staphylococcus aureus [1]) was 2, the Time (Staphylococcus aureus [2]) was 56 h and the Activity (Staphylococcus aureus [3]) was “inactive”. For the same compound, the Activity (Staphylococcus aureus [4]) was “inactive”, the Activity (Staphylococcus aureus [5]) was “inactive” and the CLint scaled at 2 µM [6] was 39 mL/min/kg. For the same compound, the MIC (Staphylococcus aureus [7]) was 0.19 µg/mL, the Activity (Escherichia coli [8]) was “inactive” and the Activity (Staphylococcus aureus [9]) was “Tde”. For the same compound, the MIC (Staphylococcus aureus [10]) was 1.56 µg/mL, the Activity (Staphylococcus aureus [11]) was “inactive” and the Activity (Escherichia coli [12]) was 4 log10CFU/ml. The Activity (Staphylococcus aureus [13]) was “inactive”, the Activity (Staphylococcus aureus [14]) was “Active” and the Activity (Staphylococcus aureus [15]) was “Active”. The Activity (Staphylococcus aureus [16]) was “inactive”, the Activity (Staphylococcus aureus [17]) was “Active” and the Activity (Staphylococcus aureus [18]) was “inactive”. For the same compound, the Activity (Pseudomonas aeruginosa [19]) was “inactive”, the Activity (Bacillus subtilis) was “Active” and the half-life at 2 µM [20] was 32 min. For the same compound, the Activity (Staphylococcus aureus [21]) was “Tde”, the MIC (Staphylococcus aureus [22]) was 6.25 µg/mL and the Activity (Staphylococcus aureus [23]) was “inactive”. For the same compound, the selectivity ratio [24] was 0.8, the Activity (Staphylococcus aureus [25]) was “Active” and the Activity (Staphylococcus aureus [26]) was “inactive”. The Activity (Staphylococcus aureus [27]) was “inactive”, the MIC (Staphylococcus aureus [28]) was 0.39 µg/mL and the Activity (Pseudomonas aeruginosa [29]) was “Active”. For the same compound, the Activity (Staphylococcus aureus [30]) was “Active”, the Activity (Staphylococcus aureus [31]) was 3 log10CFU/ml and the Activity (Staphylococcus aureus [32]) was “Active”. The IC50 at 72 h [33] was 293 nM.
